# Where two headings read alike, the source gives them in different places.
# Key:
# Assay in all cases: HotSpot kinase profiling
# Format in all cases: biochemical
# MLK2/MAP3K10 = molecular target: T1, MLK2/MAP3K10 (Homo sapiens, UniProt Q02779)
# T1 construct: purchased Reaction Biology Corp
# How it was run: (§1)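 Radiometric kinase assay with P81 filter capture; each kinase was added to fresh substrate plus cofactors in reaction buffer and incubated 2 h at room temperature. Unreacted phosphate was washed off with 0.1% phosphoric acid before detection; percent inhibition is relative to DMSO control, averaged over replicates.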
# CLK2 = molecular target: T2, CLK2 (Homo sapiens, UniProt P49760)
# T2 construct: purchased Reaction Biology Corp
# T2 sequence (P49760 whole entry): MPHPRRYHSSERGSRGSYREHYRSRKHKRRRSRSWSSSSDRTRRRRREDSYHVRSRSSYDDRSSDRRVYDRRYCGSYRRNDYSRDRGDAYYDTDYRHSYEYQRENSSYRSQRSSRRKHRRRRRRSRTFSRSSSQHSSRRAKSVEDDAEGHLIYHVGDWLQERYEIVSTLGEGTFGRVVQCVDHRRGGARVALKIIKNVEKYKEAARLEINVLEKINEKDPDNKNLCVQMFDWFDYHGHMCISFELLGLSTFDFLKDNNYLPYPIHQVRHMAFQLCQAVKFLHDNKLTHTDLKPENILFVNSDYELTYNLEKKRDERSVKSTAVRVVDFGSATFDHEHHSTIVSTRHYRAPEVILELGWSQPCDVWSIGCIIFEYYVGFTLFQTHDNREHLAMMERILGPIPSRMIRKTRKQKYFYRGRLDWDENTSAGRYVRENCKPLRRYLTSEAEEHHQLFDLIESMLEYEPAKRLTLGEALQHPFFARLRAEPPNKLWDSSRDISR
# How it was run: as §1
# MYLK3 = molecular target: T3, MYLK3 (Homo sapiens, UniProt Q32MK0)
# T3 construct: purchased Reaction Biology Corp
# T3 sequence (Q32MK0 1-819): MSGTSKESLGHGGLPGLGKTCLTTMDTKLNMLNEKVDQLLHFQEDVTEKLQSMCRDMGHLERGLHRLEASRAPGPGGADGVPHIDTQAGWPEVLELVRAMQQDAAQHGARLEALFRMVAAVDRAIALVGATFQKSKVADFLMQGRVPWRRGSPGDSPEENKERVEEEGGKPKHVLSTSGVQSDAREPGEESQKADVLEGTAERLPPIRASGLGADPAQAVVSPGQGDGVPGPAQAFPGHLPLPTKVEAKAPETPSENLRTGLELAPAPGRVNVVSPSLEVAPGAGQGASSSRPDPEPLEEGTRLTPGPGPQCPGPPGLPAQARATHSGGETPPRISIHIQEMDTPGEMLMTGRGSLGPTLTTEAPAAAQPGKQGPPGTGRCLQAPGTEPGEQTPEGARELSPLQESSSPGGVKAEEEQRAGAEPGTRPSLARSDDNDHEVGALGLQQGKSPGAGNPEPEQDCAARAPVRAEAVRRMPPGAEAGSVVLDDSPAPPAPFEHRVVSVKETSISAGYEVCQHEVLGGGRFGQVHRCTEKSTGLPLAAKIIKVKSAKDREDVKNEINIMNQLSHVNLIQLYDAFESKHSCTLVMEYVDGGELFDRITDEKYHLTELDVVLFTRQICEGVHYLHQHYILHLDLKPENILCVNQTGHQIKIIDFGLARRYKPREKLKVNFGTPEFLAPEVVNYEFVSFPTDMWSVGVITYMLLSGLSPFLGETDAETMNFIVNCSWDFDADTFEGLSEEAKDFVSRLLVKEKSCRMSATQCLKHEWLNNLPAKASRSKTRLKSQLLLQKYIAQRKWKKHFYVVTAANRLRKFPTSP
# How it was run: as §1
# MEK1 = molecular target: T4, MEK1 (Homo sapiens, UniProt Q02750)
# T4 construct: purchased Reaction Biology Corp
# How it was run: as §1
# MARK1 = molecular target: T5, MARK1 (Homo sapiens, UniProt Q9P0L2)
# T5 construct: purchased Reaction Biology Corp
# T5 sequence (Q9P0L2 whole entry): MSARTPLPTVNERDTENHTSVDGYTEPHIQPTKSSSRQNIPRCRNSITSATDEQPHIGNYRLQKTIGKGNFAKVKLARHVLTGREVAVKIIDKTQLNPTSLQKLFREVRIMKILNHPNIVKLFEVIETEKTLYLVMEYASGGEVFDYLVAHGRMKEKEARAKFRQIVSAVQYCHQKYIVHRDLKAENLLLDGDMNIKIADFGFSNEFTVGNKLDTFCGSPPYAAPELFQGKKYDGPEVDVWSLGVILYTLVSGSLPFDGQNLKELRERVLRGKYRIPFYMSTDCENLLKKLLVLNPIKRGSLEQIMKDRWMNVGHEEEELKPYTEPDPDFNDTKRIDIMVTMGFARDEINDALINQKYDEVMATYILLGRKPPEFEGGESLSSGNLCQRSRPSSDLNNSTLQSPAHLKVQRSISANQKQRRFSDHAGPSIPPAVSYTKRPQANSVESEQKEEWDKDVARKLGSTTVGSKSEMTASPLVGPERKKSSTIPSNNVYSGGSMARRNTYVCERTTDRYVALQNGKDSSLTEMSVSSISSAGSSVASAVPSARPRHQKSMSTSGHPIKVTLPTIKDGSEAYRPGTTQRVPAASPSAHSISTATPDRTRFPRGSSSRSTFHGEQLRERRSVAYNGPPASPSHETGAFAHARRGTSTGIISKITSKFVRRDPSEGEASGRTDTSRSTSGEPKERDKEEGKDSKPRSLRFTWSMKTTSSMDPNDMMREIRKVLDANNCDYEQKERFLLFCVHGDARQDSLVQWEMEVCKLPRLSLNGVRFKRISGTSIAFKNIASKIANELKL
# How it was run: as §1
# MSK2/RPS6KA4 = molecular target: T6, MSK2/RPS6KA4 (Homo sapiens, UniProt O75676)
# T6 construct: purchased Reaction Biology Corp
# T6 sequence (O75676 whole entry): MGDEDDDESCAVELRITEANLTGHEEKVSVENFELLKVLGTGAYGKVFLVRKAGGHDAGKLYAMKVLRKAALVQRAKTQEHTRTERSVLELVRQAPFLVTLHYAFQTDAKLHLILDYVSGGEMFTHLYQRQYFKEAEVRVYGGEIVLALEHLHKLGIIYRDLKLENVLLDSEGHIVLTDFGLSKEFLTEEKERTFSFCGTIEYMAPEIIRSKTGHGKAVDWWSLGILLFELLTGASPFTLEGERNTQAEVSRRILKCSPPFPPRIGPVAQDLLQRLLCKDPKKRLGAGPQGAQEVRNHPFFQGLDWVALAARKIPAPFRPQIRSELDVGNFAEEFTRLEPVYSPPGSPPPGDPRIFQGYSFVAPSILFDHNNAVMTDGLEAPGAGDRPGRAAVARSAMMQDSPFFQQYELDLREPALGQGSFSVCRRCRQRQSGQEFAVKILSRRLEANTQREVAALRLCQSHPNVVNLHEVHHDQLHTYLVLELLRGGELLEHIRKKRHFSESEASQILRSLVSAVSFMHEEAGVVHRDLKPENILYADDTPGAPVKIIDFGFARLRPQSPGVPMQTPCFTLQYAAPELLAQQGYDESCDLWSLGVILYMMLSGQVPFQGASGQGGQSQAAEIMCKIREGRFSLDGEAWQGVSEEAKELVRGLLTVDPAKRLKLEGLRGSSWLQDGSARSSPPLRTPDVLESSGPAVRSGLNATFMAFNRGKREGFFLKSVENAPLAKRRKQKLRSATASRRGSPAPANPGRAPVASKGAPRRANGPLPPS
# How it was run: as §1
# PLK2 = molecular target: T7, PLK2 (Homo sapiens, UniProt Q9NYY3)
# T7 construct: purchased Reaction Biology Corp
# T7 sequence (Q9NYY3 whole entry): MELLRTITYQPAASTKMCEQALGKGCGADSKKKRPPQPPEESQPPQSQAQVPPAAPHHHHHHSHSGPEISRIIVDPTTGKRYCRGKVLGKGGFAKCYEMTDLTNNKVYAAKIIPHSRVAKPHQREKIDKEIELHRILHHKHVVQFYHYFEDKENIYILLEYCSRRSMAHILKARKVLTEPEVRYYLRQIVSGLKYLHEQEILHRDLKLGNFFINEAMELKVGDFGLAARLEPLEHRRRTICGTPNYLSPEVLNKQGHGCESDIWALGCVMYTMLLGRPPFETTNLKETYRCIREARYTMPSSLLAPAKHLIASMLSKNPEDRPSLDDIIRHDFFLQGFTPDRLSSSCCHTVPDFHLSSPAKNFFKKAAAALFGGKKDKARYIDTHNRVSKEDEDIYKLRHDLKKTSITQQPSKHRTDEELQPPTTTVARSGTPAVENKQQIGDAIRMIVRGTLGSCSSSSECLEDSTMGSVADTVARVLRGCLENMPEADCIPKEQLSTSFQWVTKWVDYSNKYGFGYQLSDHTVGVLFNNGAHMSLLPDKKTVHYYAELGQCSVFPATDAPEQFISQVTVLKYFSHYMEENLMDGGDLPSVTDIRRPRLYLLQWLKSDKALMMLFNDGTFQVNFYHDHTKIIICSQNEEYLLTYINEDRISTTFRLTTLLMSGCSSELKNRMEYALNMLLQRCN
# How it was run: as §1
# BRK = molecular target: T8, BRK (Homo sapiens, UniProt Q13882)
# T8 construct: purchased Reaction Biology Corp
# T8 sequence (Q13882 whole entry): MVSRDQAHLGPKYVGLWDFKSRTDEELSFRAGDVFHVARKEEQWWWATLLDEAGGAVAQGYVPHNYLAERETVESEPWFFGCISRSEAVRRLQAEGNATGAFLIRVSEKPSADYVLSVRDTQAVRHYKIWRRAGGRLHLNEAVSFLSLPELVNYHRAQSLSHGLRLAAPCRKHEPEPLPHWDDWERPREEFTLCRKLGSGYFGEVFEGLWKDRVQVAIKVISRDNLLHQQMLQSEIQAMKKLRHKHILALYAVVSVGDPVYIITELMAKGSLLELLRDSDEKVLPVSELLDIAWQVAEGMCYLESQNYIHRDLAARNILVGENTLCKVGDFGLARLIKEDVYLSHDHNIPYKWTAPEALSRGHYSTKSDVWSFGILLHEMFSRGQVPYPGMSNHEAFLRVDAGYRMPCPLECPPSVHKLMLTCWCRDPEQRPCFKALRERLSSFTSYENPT
# How it was run: as §1
# CK2a = molecular target: T9, CK2a (Homo sapiens, UniProt P68400)
# T9 construct: purchased Reaction Biology Corp
# How it was run: as §1
# FGR = molecular target: T10, FGR (Homo sapiens, UniProt P09769)
# T10 construct: purchased Reaction Biology Corp
# T10 sequence (P09769 whole entry): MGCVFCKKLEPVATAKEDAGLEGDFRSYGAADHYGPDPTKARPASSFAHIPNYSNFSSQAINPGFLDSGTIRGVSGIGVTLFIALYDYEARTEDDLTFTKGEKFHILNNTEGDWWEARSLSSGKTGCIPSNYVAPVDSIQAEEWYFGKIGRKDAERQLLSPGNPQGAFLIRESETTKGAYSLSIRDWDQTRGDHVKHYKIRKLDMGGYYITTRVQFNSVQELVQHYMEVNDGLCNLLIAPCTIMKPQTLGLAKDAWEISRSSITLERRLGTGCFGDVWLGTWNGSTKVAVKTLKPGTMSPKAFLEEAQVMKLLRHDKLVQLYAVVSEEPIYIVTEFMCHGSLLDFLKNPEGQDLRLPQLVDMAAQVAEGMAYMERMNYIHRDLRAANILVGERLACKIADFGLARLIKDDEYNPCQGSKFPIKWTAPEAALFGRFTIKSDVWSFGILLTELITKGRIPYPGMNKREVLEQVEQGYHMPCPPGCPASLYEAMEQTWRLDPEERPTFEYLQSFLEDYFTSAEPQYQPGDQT
# How it was run: as §1
# [1] = read-out: % Enzyme Activity (relative to DMSO controls) Run 1
# [2] = read-out: % Enzyme Activity (relative to DMSO controls) Run 2
# T1 sequence (Q02779 whole entry): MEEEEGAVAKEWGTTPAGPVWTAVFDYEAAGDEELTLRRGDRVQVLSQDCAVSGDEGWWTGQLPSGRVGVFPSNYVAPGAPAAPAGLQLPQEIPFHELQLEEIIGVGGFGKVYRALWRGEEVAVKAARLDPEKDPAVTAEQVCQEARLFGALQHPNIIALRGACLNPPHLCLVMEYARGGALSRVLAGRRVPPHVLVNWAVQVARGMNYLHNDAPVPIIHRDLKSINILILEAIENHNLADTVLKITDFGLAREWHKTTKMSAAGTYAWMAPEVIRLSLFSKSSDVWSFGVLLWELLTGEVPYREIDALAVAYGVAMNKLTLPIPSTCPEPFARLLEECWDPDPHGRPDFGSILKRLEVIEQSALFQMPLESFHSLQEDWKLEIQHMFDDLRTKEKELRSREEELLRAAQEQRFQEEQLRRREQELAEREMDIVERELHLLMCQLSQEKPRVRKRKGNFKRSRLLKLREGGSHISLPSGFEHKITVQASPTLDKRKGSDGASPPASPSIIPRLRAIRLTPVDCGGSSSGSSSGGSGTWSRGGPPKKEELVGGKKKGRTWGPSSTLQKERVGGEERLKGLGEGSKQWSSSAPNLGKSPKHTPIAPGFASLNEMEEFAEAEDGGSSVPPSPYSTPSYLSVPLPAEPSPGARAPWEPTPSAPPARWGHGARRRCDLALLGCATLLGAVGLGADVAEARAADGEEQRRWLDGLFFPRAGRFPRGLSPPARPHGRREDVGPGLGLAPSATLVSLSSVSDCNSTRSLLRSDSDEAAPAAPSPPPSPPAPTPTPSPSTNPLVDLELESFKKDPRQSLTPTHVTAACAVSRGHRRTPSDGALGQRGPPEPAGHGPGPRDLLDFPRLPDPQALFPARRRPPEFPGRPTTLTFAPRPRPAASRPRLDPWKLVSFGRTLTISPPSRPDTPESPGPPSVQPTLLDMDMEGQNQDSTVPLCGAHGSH
compound,measurement,setting,value
C=CC(=O)Nc1cccc(Nc2nc(Nc3ccc(OCCOC)c(F)c3)ncc2F)c1 [Compound 2],inhibition at 3 µM,MLK2/MAP3K10,54.6%
same,remaining activity at 3 µM,MLK2/MAP3K10; [1],45.4%
same,remaining activity at 3 µM,MLK2/MAP3K10; [2],45.3%
same,inhibition at 3 µM,CLK2,49.6%
same,remaining activity at 3 µM,CLK2; [1],50.2%
same,remaining activity at 3 µM,CLK2; [2],50.6%
same,inhibition at 3 µM,MYLK3,-15%
same,remaining activity at 3 µM,MYLK3; [1],113%
same,remaining activity at 3 µM,MYLK3; [2],116%
same,inhibition at 3 µM,MEK1,-10.3%
same,remaining activity at 3 µM,MEK1; [1],109%
same,remaining activity at 3 µM,MEK1; [2],112%
same,inhibition at 3 µM,MARK1,5.86%
same,remaining activity at 3 µM,MARK1; [1],90.9%
same,remaining activity at 3 µM,MARK1; [2],97.3%
same,inhibition at 3 µM,MSK2/RPS6KA4,-0.36%
same,remaining activity at 3 µM,MSK2/RPS6KA4; [1],103%
same,remaining activity at 3 µM,MSK2/RPS6KA4; [2],97.4%
same,inhibition at 3 µM,PLK2,13.3%
same,remaining activity at 3 µM,PLK2; [1],86.6%
same,remaining activity at 3 µM,PLK2; [2],86.7%
same,inhibition at 3 µM,BRK,75%
same,remaining activity at 3 µM,BRK; [1],25.1%
same,remaining activity at 3 µM,BRK; [2],25%
same,inhibition at 3 µM,CK2a,-20.1%
same,remaining activity at 3 µM,CK2a; [1],117%
same,remaining activity at 3 µM,CK2a; [2],123%
same,inhibition at 3 µM,FGR,59.9%
same,remaining activity at 3 µM,FGR; [1],39.7%
same,remaining activity at 3 µM,FGR; [2],40.5%

# — patent US9492471B2, “Methods of treating a disease or disorder associated with Bruton'S Tyrosine Kinase” (Celgene Avilomics Research, Inc., priority 2013, dated 2016)
